Data on three molecules can be found in patent US12479847B2 (DANA-FARBER CANCER INSTITUTE, INC., priority 2019, dated 2025).

Common to all, as to test: KINOMEscan (ScanMAX) kinase profiling
Holding throughout (format): binding

Assay [1] deals with T1, panel of 468 kinases (Homo sapiens, UniProt Q14164).
T1 construct: purchased KINOMEscan (ScanMAX) service
T1 sequence (Q14164 1-716): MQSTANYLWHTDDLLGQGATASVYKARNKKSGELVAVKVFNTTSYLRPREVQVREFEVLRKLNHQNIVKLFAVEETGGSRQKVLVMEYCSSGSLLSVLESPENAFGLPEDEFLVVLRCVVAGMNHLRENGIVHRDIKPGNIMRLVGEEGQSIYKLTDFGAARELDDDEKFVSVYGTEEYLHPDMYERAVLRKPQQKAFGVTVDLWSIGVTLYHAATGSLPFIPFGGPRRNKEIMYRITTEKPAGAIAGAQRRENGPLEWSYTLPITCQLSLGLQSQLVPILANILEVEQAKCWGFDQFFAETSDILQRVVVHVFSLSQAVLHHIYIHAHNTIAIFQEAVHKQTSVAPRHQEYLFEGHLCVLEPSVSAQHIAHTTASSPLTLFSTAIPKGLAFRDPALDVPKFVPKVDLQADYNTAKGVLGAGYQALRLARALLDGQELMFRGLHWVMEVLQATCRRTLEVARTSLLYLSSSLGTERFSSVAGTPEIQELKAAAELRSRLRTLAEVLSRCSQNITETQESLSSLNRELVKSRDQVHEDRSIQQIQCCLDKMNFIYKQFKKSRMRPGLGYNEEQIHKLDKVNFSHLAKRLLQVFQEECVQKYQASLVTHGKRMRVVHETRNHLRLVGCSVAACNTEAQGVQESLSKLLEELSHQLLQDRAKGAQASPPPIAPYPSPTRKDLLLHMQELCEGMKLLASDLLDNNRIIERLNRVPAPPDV
The following applies: IKK-epsilon; 1 μM; read-out: % control.

Assay [2] deals with T2, panel of 468 kinases (Homo sapiens, UniProt O75914).
T2 construct: purchased KINOMEscan (ScanMAX) service
T2 sequence (O75914 whole entry): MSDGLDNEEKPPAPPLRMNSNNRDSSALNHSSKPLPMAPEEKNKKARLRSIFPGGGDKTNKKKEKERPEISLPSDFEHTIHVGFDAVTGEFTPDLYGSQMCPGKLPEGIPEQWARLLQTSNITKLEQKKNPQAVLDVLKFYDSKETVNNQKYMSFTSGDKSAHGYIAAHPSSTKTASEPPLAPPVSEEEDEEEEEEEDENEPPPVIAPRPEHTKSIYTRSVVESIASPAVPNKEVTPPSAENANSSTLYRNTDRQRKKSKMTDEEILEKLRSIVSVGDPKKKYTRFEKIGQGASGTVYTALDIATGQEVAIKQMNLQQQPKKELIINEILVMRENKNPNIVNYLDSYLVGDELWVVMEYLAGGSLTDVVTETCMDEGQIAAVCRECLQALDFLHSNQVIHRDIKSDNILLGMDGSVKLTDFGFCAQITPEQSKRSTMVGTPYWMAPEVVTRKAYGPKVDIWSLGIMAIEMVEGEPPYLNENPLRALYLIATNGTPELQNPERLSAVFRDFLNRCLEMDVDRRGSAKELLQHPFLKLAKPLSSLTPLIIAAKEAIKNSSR
The following applies: PAK3; 1 μM; read-out: % control.

The target of assay [3] is T3, panel of 468 kinases (Homo sapiens, UniProt Q13233).
T3 construct: purchased KINOMEscan (ScanMAX) service
T3 sequence (Q13233 whole entry): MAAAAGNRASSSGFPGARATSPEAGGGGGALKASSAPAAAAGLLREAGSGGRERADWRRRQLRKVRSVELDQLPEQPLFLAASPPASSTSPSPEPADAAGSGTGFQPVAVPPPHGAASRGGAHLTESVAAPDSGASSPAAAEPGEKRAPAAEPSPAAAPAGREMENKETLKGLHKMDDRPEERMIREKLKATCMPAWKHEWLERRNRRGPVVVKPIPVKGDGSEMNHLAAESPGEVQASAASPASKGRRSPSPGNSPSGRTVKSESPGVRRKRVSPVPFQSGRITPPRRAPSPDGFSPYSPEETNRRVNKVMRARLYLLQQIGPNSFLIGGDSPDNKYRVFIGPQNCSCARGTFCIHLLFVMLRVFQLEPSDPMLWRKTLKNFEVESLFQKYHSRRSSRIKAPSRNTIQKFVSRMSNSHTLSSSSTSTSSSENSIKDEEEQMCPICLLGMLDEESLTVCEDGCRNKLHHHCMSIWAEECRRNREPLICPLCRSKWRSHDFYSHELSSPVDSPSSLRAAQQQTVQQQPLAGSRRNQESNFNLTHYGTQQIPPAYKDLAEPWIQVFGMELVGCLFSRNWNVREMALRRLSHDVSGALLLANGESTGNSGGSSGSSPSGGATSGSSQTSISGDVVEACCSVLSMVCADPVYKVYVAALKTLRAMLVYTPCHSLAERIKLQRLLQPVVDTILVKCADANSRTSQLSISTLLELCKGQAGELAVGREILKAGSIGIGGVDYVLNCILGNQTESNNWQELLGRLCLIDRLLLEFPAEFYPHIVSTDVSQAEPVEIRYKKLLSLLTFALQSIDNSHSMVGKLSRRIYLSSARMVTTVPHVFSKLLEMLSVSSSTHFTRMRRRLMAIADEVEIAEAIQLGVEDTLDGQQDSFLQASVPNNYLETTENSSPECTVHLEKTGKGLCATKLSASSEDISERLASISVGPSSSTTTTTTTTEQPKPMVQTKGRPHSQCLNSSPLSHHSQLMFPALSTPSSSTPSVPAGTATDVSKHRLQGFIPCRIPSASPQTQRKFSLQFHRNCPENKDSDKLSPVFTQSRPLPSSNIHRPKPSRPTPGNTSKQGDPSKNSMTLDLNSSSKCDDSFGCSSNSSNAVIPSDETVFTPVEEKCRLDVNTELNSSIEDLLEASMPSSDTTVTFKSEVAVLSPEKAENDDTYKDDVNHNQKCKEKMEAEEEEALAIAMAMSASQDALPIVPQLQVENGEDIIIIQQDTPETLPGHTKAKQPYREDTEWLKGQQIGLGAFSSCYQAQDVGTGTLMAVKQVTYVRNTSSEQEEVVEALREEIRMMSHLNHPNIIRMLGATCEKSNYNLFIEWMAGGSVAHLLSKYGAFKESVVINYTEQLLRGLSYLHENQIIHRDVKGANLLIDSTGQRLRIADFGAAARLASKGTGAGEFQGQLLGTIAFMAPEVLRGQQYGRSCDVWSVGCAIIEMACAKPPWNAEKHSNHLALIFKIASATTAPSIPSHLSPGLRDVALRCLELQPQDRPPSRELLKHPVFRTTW
The settings on record: MAP3K1; 1 μM; read-out: % control.

Assay [4] addresses T4, panel of 468 kinases (Homo sapiens, UniProt Q32MK0).
T4 construct: purchased KINOMEscan (ScanMAX) service
T4 sequence (Q32MK0 1-819): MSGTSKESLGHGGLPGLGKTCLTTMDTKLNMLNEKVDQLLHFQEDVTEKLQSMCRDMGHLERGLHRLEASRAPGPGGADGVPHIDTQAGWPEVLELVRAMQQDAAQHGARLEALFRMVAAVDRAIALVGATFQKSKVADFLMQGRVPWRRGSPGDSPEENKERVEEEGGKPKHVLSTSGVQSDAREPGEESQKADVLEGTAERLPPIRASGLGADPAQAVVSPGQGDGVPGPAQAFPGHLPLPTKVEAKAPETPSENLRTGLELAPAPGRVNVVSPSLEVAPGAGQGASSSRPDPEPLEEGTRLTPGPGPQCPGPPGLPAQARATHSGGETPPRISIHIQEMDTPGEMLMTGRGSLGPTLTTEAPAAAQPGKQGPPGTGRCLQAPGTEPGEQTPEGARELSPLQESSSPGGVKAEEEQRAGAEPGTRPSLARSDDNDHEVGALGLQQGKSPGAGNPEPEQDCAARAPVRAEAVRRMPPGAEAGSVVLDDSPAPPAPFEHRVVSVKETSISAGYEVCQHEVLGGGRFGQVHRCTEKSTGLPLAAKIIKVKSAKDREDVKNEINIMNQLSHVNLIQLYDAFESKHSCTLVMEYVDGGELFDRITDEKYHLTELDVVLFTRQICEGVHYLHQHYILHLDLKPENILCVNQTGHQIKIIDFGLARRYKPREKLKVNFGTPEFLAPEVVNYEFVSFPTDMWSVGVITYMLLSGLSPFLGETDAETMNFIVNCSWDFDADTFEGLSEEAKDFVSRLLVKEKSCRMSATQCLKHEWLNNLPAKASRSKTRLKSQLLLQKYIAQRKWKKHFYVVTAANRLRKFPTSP
The following applies: MLCK; 1 μM; read-out: % control.

Assay [5] concerns the target T5, panel of 468 kinases (Homo sapiens, UniProt Q8IY84).
T5 construct: purchased KINOMEscan (ScanMAX) service
The settings on record: NIM1; 1 μM; read-out: % control.

Assay [6] concerns the target T6, panel of 468 kinases (Homo sapiens, UniProt P42338).
T6 construct: purchased KINOMEscan (ScanMAX) service
The settings on record: PIK3CB; 1 μM; read-out: % control.

The target in assay [7] is T7, panel of 468 kinases (Homo sapiens, UniProt P32298).
T7 construct: purchased KINOMEscan (ScanMAX) service
T7 sequence (P32298 whole entry): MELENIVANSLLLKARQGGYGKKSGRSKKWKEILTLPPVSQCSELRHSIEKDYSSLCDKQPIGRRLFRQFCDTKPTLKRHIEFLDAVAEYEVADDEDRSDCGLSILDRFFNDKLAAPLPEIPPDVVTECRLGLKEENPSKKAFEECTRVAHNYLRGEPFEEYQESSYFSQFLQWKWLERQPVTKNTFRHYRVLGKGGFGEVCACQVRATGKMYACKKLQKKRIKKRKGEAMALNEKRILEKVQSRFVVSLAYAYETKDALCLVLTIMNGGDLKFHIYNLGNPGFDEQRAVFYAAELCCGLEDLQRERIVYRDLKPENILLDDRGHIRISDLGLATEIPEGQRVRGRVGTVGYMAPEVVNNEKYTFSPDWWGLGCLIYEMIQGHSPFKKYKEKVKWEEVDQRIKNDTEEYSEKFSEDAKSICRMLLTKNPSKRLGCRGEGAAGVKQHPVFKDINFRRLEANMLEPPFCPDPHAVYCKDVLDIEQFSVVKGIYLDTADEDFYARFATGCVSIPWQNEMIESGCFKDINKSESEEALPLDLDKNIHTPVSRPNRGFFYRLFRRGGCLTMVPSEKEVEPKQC
The settings on record: GRK4; 1 μM; read-out: % control.

For assay [8], the target named is T8, panel of 468 kinases (Homo sapiens, UniProt Q96D53).
T8 construct: purchased KINOMEscan (ScanMAX) service
T8 sequence (Q96D53 1-544): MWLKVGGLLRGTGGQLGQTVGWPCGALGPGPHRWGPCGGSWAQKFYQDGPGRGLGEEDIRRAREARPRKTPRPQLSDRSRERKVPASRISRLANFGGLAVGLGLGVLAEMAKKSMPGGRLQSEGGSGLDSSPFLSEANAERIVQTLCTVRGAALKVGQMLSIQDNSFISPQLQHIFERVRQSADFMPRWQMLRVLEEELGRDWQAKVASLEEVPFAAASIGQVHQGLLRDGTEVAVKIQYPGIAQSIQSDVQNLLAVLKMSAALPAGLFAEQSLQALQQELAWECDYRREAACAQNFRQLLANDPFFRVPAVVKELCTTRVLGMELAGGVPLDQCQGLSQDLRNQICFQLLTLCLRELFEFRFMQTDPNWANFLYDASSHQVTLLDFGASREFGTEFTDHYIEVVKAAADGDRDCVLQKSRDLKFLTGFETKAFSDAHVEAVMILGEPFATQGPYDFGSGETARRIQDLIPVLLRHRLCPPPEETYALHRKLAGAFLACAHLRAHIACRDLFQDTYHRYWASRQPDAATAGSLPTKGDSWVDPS
The following applies: ADCK4; 1 μM; read-out: % control.

For assay [9], the target named is T9, panel of 468 kinases (Homo sapiens, UniProt Q9NQU5).
T9 construct: purchased KINOMEscan (ScanMAX) service
T9 sequence (Q9NQU5 whole entry): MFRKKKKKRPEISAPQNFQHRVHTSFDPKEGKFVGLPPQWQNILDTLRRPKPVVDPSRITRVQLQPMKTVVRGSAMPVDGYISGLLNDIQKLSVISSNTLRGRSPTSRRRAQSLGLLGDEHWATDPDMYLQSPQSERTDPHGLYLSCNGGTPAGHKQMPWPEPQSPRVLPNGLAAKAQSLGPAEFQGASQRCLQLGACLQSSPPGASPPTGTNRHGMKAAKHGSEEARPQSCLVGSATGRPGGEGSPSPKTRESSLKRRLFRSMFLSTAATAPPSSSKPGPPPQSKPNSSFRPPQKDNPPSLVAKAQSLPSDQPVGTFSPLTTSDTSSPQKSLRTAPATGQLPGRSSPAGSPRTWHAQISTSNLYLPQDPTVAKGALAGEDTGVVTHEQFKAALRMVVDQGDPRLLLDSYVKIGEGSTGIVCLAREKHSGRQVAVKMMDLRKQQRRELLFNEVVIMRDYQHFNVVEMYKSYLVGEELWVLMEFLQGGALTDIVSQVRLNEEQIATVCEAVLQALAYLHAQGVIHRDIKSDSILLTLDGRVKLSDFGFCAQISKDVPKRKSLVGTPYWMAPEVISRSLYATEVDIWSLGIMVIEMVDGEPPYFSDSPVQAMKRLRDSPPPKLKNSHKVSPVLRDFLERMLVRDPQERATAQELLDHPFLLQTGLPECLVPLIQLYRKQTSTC
The following applies: PAK6; 1 μM; read-out: % control.

Each structure is given as a SMILES string.

T5 sequence (Q8IY84 whole entry): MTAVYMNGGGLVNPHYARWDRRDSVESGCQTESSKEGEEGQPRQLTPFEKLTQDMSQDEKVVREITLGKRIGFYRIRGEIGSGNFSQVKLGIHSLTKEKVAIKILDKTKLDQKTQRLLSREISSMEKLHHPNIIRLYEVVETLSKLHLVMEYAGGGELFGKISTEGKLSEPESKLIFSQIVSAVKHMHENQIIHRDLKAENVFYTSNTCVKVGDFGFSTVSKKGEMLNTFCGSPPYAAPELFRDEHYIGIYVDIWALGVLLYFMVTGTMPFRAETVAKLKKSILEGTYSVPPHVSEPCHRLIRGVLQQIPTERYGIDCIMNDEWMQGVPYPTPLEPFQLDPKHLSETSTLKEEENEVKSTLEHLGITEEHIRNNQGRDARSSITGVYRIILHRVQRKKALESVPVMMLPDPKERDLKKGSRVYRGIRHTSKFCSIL
T6 sequence (P42338 whole entry): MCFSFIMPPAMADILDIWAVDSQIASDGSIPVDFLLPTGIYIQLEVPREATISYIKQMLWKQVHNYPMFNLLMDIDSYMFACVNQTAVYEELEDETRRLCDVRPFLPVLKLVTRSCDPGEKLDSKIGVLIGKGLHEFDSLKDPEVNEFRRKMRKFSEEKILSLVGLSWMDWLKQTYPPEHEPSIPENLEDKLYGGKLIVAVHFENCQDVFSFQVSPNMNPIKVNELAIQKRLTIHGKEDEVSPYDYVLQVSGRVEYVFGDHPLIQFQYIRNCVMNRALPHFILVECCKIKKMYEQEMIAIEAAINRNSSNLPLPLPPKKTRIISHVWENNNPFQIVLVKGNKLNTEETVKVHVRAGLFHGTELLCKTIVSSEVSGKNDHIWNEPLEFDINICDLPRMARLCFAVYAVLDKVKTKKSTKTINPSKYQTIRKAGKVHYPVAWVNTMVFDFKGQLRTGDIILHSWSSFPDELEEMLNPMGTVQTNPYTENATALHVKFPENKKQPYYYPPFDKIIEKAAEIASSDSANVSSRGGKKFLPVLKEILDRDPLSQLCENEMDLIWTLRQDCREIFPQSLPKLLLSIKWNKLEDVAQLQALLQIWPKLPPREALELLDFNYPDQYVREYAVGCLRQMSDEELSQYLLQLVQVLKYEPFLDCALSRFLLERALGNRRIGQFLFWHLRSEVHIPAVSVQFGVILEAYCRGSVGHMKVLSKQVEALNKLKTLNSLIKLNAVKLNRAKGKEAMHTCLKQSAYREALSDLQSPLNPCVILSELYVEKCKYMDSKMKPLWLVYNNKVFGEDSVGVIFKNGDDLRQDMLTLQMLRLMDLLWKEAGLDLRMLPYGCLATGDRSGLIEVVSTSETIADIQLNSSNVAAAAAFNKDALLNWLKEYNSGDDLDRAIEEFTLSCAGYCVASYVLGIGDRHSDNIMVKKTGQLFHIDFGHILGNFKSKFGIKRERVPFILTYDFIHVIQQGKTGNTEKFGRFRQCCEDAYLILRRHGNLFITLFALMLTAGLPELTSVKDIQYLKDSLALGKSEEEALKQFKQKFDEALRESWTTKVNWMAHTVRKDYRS

Regarding `CNc1nc(Nc2ccc(S(=O)(=O)N3CCC(N4CCOCC4)CC3)cc2OC)nc2[nH]cc(Cl)c12` [Compound 12, 5-chloro-N2-(2-methoxy-4-((4-morpholinopiperidin-1-yl)sulfonyl)phenyl)-N4-methyl-7H-pyrrolo[2,3-d]pyrimidine-2,4-diamine], the remaining binding at 1 µM was determined as 98% in assay [1]; 100% in assay [2]; 79% in assay [3]; 100% in assay [4]; 82% in [5]; 80% in [6]. Moreover, the remaining binding at 1 µM in assay [7], in [8] and in [9] was 100% in each case.

As for `CNc1nc(Nc2ccc(P3(=O)CCN(C4CCOCC4)CC3)cc2OC)nc2[nH]cc(Cl)c12` [Compound 77, 4-(4-((5-chloro-4-(methylamino)-7H-pyrrolo[2,3-d]pyrimidin-2-yl)amino)-3-methoxyphenyl)-1-(tetrahydro-2H-pyran-4-yl)-1,4-azaphosphinane 4-oxide], the remaining binding at 1 µM in [1] was determined as 89%; in assay [2], 91%; in assay [3], 73%; in assay [4], 98%; in assay [5] it was 88%; in [6], 71%. Besides, the remaining binding at 1 µM in assay [7] turned out to be 95%; in assay [8], 81%; in assay [9] it was 95%.

In the case of `CNc1nc(Nc2ccc(C(=O)N3CCC(N4CCOCC4)CC3)c3c2OCO3)nc2[nH]cc(Cl)c12` [Compound 75, (7-((5-chloro-4-(methylamino)-7H-pyrrolo[2,3-d]pyrimidin-2-yl)amino)benzo[d][1,3]dioxol-4-yl)(4-morpholinopiperidin-1-yl)methanone], the remaining binding at 1 µM in assay [1] amounted to 47%; in [2], 97%; in assay [3], 82%; in assay [4] it was 35%; in assay [5], 73%; in assay [6] it was 89%. The remaining binding at 1 µM in assay [7] is 41%; in assay [8], 100%; in assay [9], 100%.
